Results as given in patent US9108958B2, “Selective CCR2 antagonists” (Boehringer Ingelheim International GmbH, priority 2011, dated 2015).

What was measured:
[1] = biological target: T1, human CCR5 (Homo sapiens, UniProt P51681); assay: CCR5 receptor membrane binding assay ([125I]RANTES, CHO (Gα16) human CCR5 cell membranes, SPA beads); details: bound radioactivity after 6 h, read-out: hKi [nM] (CCR5)
T1 construct: expressed in transfected cells; host or cells: CHO cells co-expressing Gα16, under puromycin and zeocin selection; membrane preparation
Description: The above exemplary substances have been tested for binding to CCR5 using a binding assay as outlined herein below:
CHO, (Gα16) human CCR5 cells were cultured under standardized conditions at 37° C. and 5% CO2 in a humidified incubator. CHO (Gα16) human CCR5 cells were cultivated in Ham's F12 (Invitrogen; #31765068) supplemented with 10 μg/ml Puromycin (Invitrogen; #A11139-03), 200 μg/ml Zeocin (Invitrogen; #45-0003) and 10% FCS (Gibco; #10500-064).
Membranes were prepared from CHO (Gα16) human CCR5 cells. Cells were cultured on […] plates (Nunc; #166508) 2-3 days before membrane preparation (usually 80-100 plates to obtain 80 mg protein).
Cells were scraped off the plates with a big scraper and washed with 2×5 ml ice cold Phosphate Buffer Saline (PBS; Invitrogen; #14040-174). Cell suspension was collected in a glass bottle (on ice). Cell suspension was harvested at 1400 rpm and 4° C. for 10 min and washed in PBS. Cell pellet was resuspended in 40 ml PBS with protease inhibitor mix ‘complete’ (Roche; #11873580001; 1 tablet/50 ml).
For gentle cell disruption the membrane preparation was performed by using a homogenizer (potter). Cells were homogenized for 5-10 min.
Membranes were centrifuged at 1000 rpm and 4° C. for 5 min Supernatant (=membrane) was harvested in a new falcon tube and remaining cell pellet homogenized again for 5-10 min with PBS with protease inhibitor mix and centrifuged. Collected supernatant was centrifuged at 40000 rpm and 4° C. for 30 min to sediment the cell membranes.
The membranes were resuspended in 25 mM HEPES, 25 mM MgCl2, 1 mM CaCl2, 10% Glycerine for storage in aliquots at −80° C. Membranes were diluted to a concentration of 5 mg/ml (Bradford Assay).
(§1) Receptor Membrane Binding Assay:
[^125I]RANTES, Stock: 1825 Ci/mmol, 25 μCi (Bio Trend #A3-AI-676) was solved in 1000 μl assay buffer (100 mM NaCl; 10 mM MgCl2; 50 mM Tris-HCl; 1 mM EDTA; 0.1% BSA, pH 7.6), stored at −20° C.
CHO (Gα16) human CCR5 membrane were solved on ice and adjusted with assay buffer to a concentration of 2.5 μg/15 μl.
Amersham Biosciences PVT-WGA Beads (GE Healthcare; #RPNQ0001) were adjusted with assay buffer to a concentration of 8 mg/ml. For preparation of the membrane-bead-suspension, membranes and beads were incubated for 30 min at RT under rotation with a ratio of 1:2.
Test compounds dissolved in 100% DMSO to a concentration of 10 mM and are further diluted with 100% DMSO to 1 mM. All additional compound dilutions were obtained with assay buffer, final 1% DMSO. 7 μl compound dilution, 45 μl membrane-bead-suspension and 10 μl [^125I]RANTES (ca. 20000 cpm/10 μl) were incubated at RT. Bound radioactivity was determined by scintillation counter after 6 h. Determination of affinity of test compounds (dissociation constant Ki) is calculated by iterative fitting of experimental data using the “easy sys” program, which is based on law of mass action (Schittkowski K. (1994), Numerische Mathematik, Vol. 68, 129-142).

[2] = biological target: T2, CCR2 (Homo sapiens, UniProt P41597); assay: CCR2 receptor membrane binding assay ([125I]MCP-1, THP-1 cell membranes, SPA beads); details: THP-1 membranes, [125I]MCP-1, bound radioactivity after 8 h; read-out: hKi [nM](CCR2)
T2 construct: Membranes were prepared from THP-1 cells; endogenous in cells; host or cells: THP-1 (human acute monocytic leukaemia cells), membrane preparation
T2 sequence (P41597 1-360 isoform P41597-2): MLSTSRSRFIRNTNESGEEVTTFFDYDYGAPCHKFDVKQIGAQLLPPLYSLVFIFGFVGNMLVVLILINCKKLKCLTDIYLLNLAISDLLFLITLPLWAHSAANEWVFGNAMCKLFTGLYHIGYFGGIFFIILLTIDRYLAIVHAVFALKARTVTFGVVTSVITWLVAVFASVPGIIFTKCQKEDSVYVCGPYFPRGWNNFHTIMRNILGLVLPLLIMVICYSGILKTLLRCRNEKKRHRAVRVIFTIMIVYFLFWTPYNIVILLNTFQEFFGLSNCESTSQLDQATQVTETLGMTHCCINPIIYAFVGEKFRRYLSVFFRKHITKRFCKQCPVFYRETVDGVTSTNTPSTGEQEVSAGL
Description: The above exemplary substances have been tested for binding to CCR2 using a binding assay as outlined herein below:
THP-1 cells (human acute monocytic leukaemia cells) were cultured under standardized conditions at 37° C. and 5% CO2 in a humidified incubator. THP-1 cells were cultivated in RPMI 1640 medium (Gibco 21875) containing 1% MEM-NEAA (Gibso 11140) 2 mM L-glutamine, 1.5 g/L sodium bicarbonate, 4.5 g/L glucose, 10 mM HEPES and 1.0 mM sodium pyruvate, 90%; 10% fetal calf serum (FCS Gibco 10500-064).
Membranes were prepared from THP-1 cells. THP-1 cells were centrifuged at 300×g at 4° C. for 10 min. The cell pellet was resuspendet in Phosphate Buffer Saline (PBS, including 10 μM Pefabloc and a protease inhibitor mix ‘complete’, Boehringer Mannheim (1 tablet/50 ml)), to a concentration of […]. The membrane preparation was performed by disrupting the cells by nitrogen […] (at 50 bar, for 1 h) in a “Nitrogen Bombe” (Parr Instrument). Cell debris was removed by centrifugation (800×g at 4° C., 1 min) The supernatant was centrifuged at 80000×g, 4° C. for 30 min to sediment the cell membranes. Usually 50 mg of protein (Bradford assay) were yielded from 1×10E9 cells. The membranes were resuspendet in 25 mM HEPES, 25 mM MgCl2, 1 mM CaCl2, 10% Glycerine for storage in aliquots at −80° C. in 25 mM HEPES, 25 mM MgCl2, 1 mM CaCl2, 10% Glycerine and stored at −80° C.
as §1
Perkin Elmer NEX 332 Jod^125 MCP-1, Stock: 2200 Ci/mmol solved in 2000 μl assay buffer, stored at −20° C. THP-1 membrane were adjusted with 25 mM HEPES, pH 7.2; 5 mM MgCl2; 0.5 mM CaCl2; 0.2% BSA assay buffer to a concentration of 2.5 μg/15 μl. Amersham Biosciences PVT-WGA Beads (RPNQ0001) were adjusted with assay buffer to a concentration of 0.24 mg/30 μl. For preparation of the membrane-bead-suspension membranes and beads were incubated for 30 min at RT under rotation (60 rpm) with a ratio of 1:2. Test compounds dissolved in 100% DMSO to a concentration of 10 mM and are further diluted with 100% DMSO to 1 mM. All additional compound dilutions were obtained with assay buffer, final 1% DMSO. Compounds, membrane-bead-suspension and [^125I]MCP-1 (ca. 25000 cpm/10 μl) were incubated. Bound radioactivity was determined by scintillation counter after 8 h. Determination of affinity of test compounds (dissociation constant hKi) is calculated by iterative fitting of experimental data using the “easy sys” program, which is based on law of mass action (Schittkowski K. (1994), Numerische Mathematik, Vol. 68, 129-142).

T1 sequence (P51681 whole entry): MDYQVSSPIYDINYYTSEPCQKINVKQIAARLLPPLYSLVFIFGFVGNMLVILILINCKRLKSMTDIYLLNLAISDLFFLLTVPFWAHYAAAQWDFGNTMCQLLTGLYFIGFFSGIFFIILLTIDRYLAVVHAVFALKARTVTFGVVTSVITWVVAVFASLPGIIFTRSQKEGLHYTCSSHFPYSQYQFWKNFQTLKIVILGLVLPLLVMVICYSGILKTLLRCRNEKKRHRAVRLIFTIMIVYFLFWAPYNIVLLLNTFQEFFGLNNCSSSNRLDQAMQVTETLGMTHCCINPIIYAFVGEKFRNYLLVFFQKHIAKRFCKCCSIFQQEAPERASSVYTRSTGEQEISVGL

Compound	Ki [1] [nM]	Ki [2] [nM]
CO[C@@H]1COCC[C@@H]1NC1CCN(C(=O)c2nc(C3CCOCC3)nc(N3CCc4cc(C(F)(F)F)ccc4C3)c2C)CC1 [Example 4]	310	2
CO[C@H]1COCC[C@H]1NC1CCN(C(=O)c2nc(-c3cc(C)on3)nc(N3CCc4ccc(C(F)(F)F)cc4C3)c2C)CC1 [Example 26]	130	5
Cc1c(C(=O)N2CCC(N[C@H]3CCOC[C@H]3F)CC2)nc(C2CCOCC2)nc1N1CCc2cc(C(F)(F)F)ccc2C1 [Example 5]	4580	14
Cc1cc(-c2nc(NC[C@H]3CCC[C@@H](c4ccc(C(F)(F)F)cc4)O3)c(C)c(C(=O)N3CCC(N[C@@H]4CCOC[C@@H]4F)CC3)n2)no1 [Example 24]	50	1
Cc1c(Nc2ccc(Cl)c(Cl)c2)nc(CF)nc1C(=O)N1CCC(N[C@@H]2CCOC[C@@H]2F)CC1 [Example 37]	1370	8
CO[C@@H]1COCC[C@@H]1NC1CCN(C(=O)c2nc(-c3cc(C)on3)nc(N3CCc4ccc(C(F)(F)F)cc4C3)c2C)CC1 [Example 29]	53	2
CO[C@@H]1COCC[C@@H]1NC1CCN(C(=O)c2nc(C3CCOCC3)nc(N3CCc4ccc(C(F)(F)F)cc4C3)c2C)CC1 [Example 12]	46	0.6
CO[C@@H]1COCC[C@@H]1NC1CCN(C(=O)c2nc(-c3cc(C)on3)nc(N3CCc4cc(C(F)(F)F)ccc4C3)c2C)CC1 [Example 7]	380	8
CSc1ccc([C@@H]2CCC[C@H](CNc3cc(C(=O)N4CCC(NC5CCOCC5F)CC4)nc(CF)n3)O2)cc1 (stereo partly shown) [Example 40]	230	7

Results, then the compound that gave them:

Ki [1] [nM]	Ki [2] [nM]	Compound
150	2	CO[C@@H]1COCC[C@@H]1NC1CCN(C(=O)c2nc(C(F)(F)F)nc(N3CCc4ccc(C(F)(F)F)cc4C3)c2C)CC1 [Example 2]
160	2	CO[C@@H]1COCC[C@@H]1NC1CCN(C(=O)c2nc(C(F)F)nc(N3CCc4ccc(C(F)(F)F)cc4C3)c2C)CC1 [Example 35]
5870	11	Cc1c(C(=O)N2CCC(N[C@@H]3CCOC[C@@H]3F)CC2)nc(C2CCOCC2)nc1N1CCc2cc(C(F)(F)F)ccc2C1 [Example 8]
17300	20	Cc1cc(-c2nc(C(=O)N3CCC(N[C@@H]4CCOC[C@@H]4F)CC3)c(C)c(N3CCc4cc(C(F)(F)F)ccc4C3)n2)no1 [Example 6]
1300	5	Cc1c(C(=O)N2CCC(N[C@H]3CCOC[C@H]3F)CC2)nc(C2CCOCC2)nc1N1CCc2ccc(C(F)(F)F)cc2C1 [Example 13]
3400	38	Cc1cc(-c2nc(C(=O)N3CCC(N[C@H]4CCOC[C@H]4F)CC3)c(C)c(N3CCc4cc(C(F)(F)F)ccc4C3)n2)no1 [Example 9]
3450	17	Cc1c(C(=O)N2CCC(N[C@H]3CCOC[C@H]3F)CC2)nc(CF)nc1N1CCc2ccc(C(F)(F)F)cc2C1 (relative stereo) [Example 45]
1350	11	Cc1cc(-c2nc(C(=O)N3CCC(N[C@@H]4CCOC[C@@H]4F)CC3)c(C)c(N3CCc4ccc(C(F)(F)F)cc4C3)n2)no1 [Example 28]
